Where “and” joins values, the source holds several entries; their conditions need not be identical. Equal values may be shown once. Inconclusive results are not listed. The calls were made as follows: active = survival T/C of 150% or more; inactive = T/C below 125% in these data.
Test system: Lewis lung carcinoma i.m., BDF1 mice, T/C %
Assay: NCI In Vivo Anticancer Drug Screen. Data for tumor model Lewis Lung Carcinoma (intramuscular) in B6D2F1 (BDF1) mice
Method in brief: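 Transplantable tumour model; readout survival or tumour size; value = treated (T) / vehicle control (C).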

Measured: T/C

CC(=O)O[C@]1(C(C)=O)CC[C@H]2[C@@H]3C[C@H](C)C4=CC(=O)CC[C@]4(C)[C@H]3CC[C@@]21C
inactive: endpoint: median survival time, dose: 50.0 mg/kg/injection, schedule: Q01DX009 (ip), vehicle: Klucel (hydroxypropylcellulose) (HPC), higher = longer survival 90 % of control | endpoint: median survival time, dose: 50.0 mg/kg/injection, schedule: Q01DX011 (ip), vehicle: Klucel (hydroxypropylcellulose) (HPC), higher = longer survival 104 % of control and 109 % of control | endpoint: median survival time, dose: 100.0 mg/kg/injection, schedule: Q01DX009 (ip), vehicle: Klucel (hydroxypropylcellulose) (HPC), higher = longer survival 107 % of control | endpoint: median survival time, dose: 100.0 mg/kg/injection, schedule: Q01DX011 (ip), vehicle: Klucel (hydroxypropylcellulose) (HPC), higher = longer survival 104 % of control | endpoint: median survival time, dose: 200.0 mg/kg/injection, schedule: Q01DX009 (ip), vehicle: Klucel (hydroxypropylcellulose) (HPC), higher = longer survival 110 % of control | endpoint: median survival time, dose: 200.0 mg/kg/injection, schedule: Q01DX011 (ip), vehicle: Klucel (hydroxypropylcellulose) (HPC), higher = longer survival 107 % of control and 119 % of control | endpoint: median survival time, dose: 400.0 mg/kg/injection, schedule: Q01DX009 (ip), vehicle: Klucel (hydroxypropylcellulose) (HPC), higher = longer survival 114 % of control | endpoint: median survival time, dose: 400.0 mg/kg/injection, schedule: Q01DX011 (ip), vehicle: Klucel (hydroxypropylcellulose) (HPC), higher = longer survival 109 % of control and 123 % of control | endpoint: median survival time, dose: 800.0 mg/kg/injection, schedule: Q01DX009 (ip), vehicle: Klucel (hydroxypropylcellulose) (HPC), higher = longer survival 90 % of control

CC1CCC(NC(=O)N(CCCl)N=O)CC1 (stereo not drawn)
active: endpoint: median survival time, dose: 8.0 mg/kg/injection, schedule: Q01DX009 (ip), vehicle: saline + alcohol, higher = longer survival 156 % of control | endpoint: median survival time, dose: 12.5 mg/kg/injection, schedule: Q06HX004 (ip), vehicle: saline, higher = longer survival 158 % of control | endpoint: median survival time, dose: 14.0 mg/kg/injection, schedule: Q01DX001 (sc), vehicle: Klucel (hydroxypropylcellulose) (HPC), higher = longer survival 158 % of control | endpoint: median survival time, dose: 23.0 mg/kg/injection, schedule: Q01DX001 (sc), vehicle: Klucel (hydroxypropylcellulose) (HPC), higher = longer survival 177 % of control | endpoint: median survival time, dose: 24.0 mg/kg/injection, schedule: Q07DX003 (ip), vehicle: saline, higher = longer survival 175 % of control | endpoint: median survival time, dose: 30.0 mg/kg/injection, schedule: Q01DX001 (ip), vehicle: saline, higher = longer survival 197 % of control | endpoint: median survival time, dose: 30.0 mg/kg/injection, schedule: Q07DX003 (ip), vehicle: saline, higher = longer survival 197 % of control and 204 % of control | endpoint: median survival time, dose: 30.0 mg/kg/injection, schedule: Q14DX002 (ip), vehicle: saline, higher = longer survival 187 % of control | endpoint: median survival time, dose: 39.0 mg/kg/injection, schedule: Q07DX003 (ip), vehicle: saline, higher = longer survival 151 % of control | endpoint: median survival time, dose: 45.0 mg/kg/injection, schedule: Q01DX001 (ip), vehicle: saline, higher = longer survival 151 % of control | endpoint: median survival time, dose: 50.0 mg/kg/injection, schedule: Q01DX001 (ip), vehicle: saline, higher = longer survival 181 % of control
83 % of control: endpoint: mean tumor weight, dose: 3.12 mg/kg/injection, schedule: Q01DX011 (ip), vehicle: saline, higher = larger tumour
63 % of control: endpoint: mean tumor weight, dose: 6.25 mg/kg/injection, schedule: Q01DX011 (ip), vehicle: saline, higher = larger tumour
30 % of control: endpoint: mean tumor weight, dose: 25.0 mg/kg/injection, schedule: Q08DX002 (ip), vehicle: saline, higher = larger tumour
41 % of control: endpoint: mean tumor weight, dose: 6.25 mg/kg/injection, schedule: Q06HX004 (ip), vehicle: saline, higher = larger tumour
80 % of control: endpoint: mean tumor weight, dose: 3.12 mg/kg/injection, schedule: Q06HX008 (ip), vehicle: saline, higher = larger tumour
11 % of control: endpoint: mean tumor weight, dose: 12.5 mg/kg/injection, schedule: Q06HX008 (ip), vehicle: saline, higher = larger tumour
8 % of control: endpoint: mean tumor weight, dose: 50.0 mg/kg/injection, schedule: Q08DX002 (ip), vehicle: saline, higher = larger tumour
inactive: endpoint: median survival time, dose: 1.0 mg/kg/injection, schedule: Q01DX009 (ip), vehicle: saline + alcohol, higher = longer survival 112 % of control | endpoint: median survival time, dose: 2.5 mg/kg/injection, schedule: Q01DX015 (ip), vehicle: saline, higher = longer survival 111 % of control | endpoint: median survival time, dose: 3.12 mg/kg/injection, schedule: Q01DX017 (ip), vehicle: saline, higher = longer survival 100 % of control | endpoint: median survival time, dose: 3.12 mg/kg/injection, schedule: Q06HX012 (ip), vehicle: saline, higher = longer survival 97 % of control | endpoint: median survival time, dose: 4.0 mg/kg/injection, schedule: Q01DX009 (ip), vehicle: saline + alcohol, higher = longer survival 104 % of control and 118 % of control | endpoint: median survival time, dose: 4.0 mg/kg/injection, schedule: Q01DX011 (ip), vehicle: saline with Tween-80, higher = longer survival 100 % of control and 114 % of control | endpoint: median survival time, dose: 5.0 mg/kg/injection, schedule: Q01DX015 (ip), vehicle: saline, higher = longer survival 97 % of control and 107 % of control | endpoint: median survival time, dose: 6.25 mg/kg/injection, schedule: Q06HX004 (ip), vehicle: saline, higher = longer survival 106 % of control | endpoint: median survival time, dose: 6.3 mg/kg/injection, schedule: Q01DX015 (ip), vehicle: saline, higher = longer survival 95 % of control | endpoint: median survival time, dose: 7.5 mg/kg/injection, schedule: Q07DX003 (ip), vehicle: saline, higher = longer survival 90 % of control | endpoint: median survival time, dose: 7.9 mg/kg/injection, schedule: Q01DX015 (ip), vehicle: saline, higher = longer survival 90 % of control | endpoint: median survival time, dose: 8.4 mg/kg/injection, schedule: Q01DX001 (sc), vehicle: Klucel (hydroxypropylcellulose) (HPC), higher = longer survival 114 % of control | endpoint: median survival time, dose: 10.0 mg/kg/injection, schedule: Q01DX001 (ip), vehicle: saline + alcohol, higher = longer survival 116 % of control | endpoint: median survival time, dose: 12.5 mg/kg/injection, schedule: Q01DX001 (ip), vehicle: saline, higher = longer survival 104 % of control | endpoint: median survival time, dose: 12.5 mg/kg/injection, schedule: Q06HX012 (ip), vehicle: saline, higher = longer survival 93 % of control | endpoint: median survival time, dose: 12.5 mg/kg/injection, schedule: Q08DX003 (ip), vehicle: saline, higher = longer survival 108 % of control | endpoint: median survival time, dose: 14.0 mg/kg/injection, schedule: Q07DX003 (ip), vehicle: saline, higher = longer survival 104 % of control | endpoint: median survival time, dose: 15.0 mg/kg/injection, schedule: Q07DX003 (ip), vehicle: saline, higher = longer survival 90 % of control | endpoint: median survival time, dose: 20.0 mg/kg/injection, schedule: Q01DX001 (ip), vehicle: saline + alcohol, higher = longer survival 92 % of control | endpoint: median survival time, dose: 23.0 mg/kg/injection, schedule: Q07DX003 (ip), vehicle: saline, higher = longer survival 112 % of control | endpoint: median survival time, dose: 24.0 mg/kg/injection, schedule: Q01DX001 (ip), vehicle: saline, higher = longer survival 102 % of control | endpoint: median survival time, dose: 25.0 mg/kg/injection, schedule: Q01DX001 (ip), vehicle: saline, higher = longer survival 122 % of control | endpoint: median survival time, dose: 25.0 mg/kg/injection, schedule: Q08DX003 (ip), vehicle: saline, higher = longer survival 91 % of control | endpoint: median survival time, dose: 30.0 mg/kg/injection, schedule: Q01DX001 (ip), vehicle: saline + alcohol, higher = longer survival 92 % of control | endpoint: median survival time, dose: 45.0 mg/kg/injection, schedule: Q07DX003 (ip), vehicle: saline, higher = longer survival 117 % of control | endpoint: median survival time, dose: 45.0 mg/kg/injection, schedule: Q14DX002 (ip), vehicle: saline, higher = longer survival 117 % of control | endpoint: median survival time, dose: 56.0 mg/kg/injection, schedule: Q07DX003 (ip), vehicle: saline, higher = longer survival 100 % of control
21 % of control: endpoint: mean tumor weight, dose: 39.0 mg/kg/injection, schedule: Q01DX001 (sc), vehicle: Klucel (hydroxypropylcellulose) (HPC), higher = larger tumour
76 % of control: endpoint: mean tumor weight, dose: 12.5 mg/kg/injection, schedule: Q01DX001 (ip), vehicle: saline, higher = larger tumour
93 % of control: endpoint: mean tumor weight, dose: 6.25 mg/kg/injection, schedule: Q06HX008 (ip), vehicle: saline, higher = larger tumour
38 % of control: endpoint: mean tumor weight, dose: 25.0 mg/kg/injection, schedule: Q01DX001 (ip), vehicle: saline, higher = larger tumour
99 % of control: endpoint: mean tumor weight, dose: 12.5 mg/kg/injection, schedule: Q08DX002 (ip), vehicle: saline, higher = larger tumour
35 % of control: endpoint: mean tumor weight, dose: 23.0 mg/kg/injection, schedule: Q01DX001 (sc), vehicle: Klucel (hydroxypropylcellulose) (HPC), higher = larger tumour
12 % of control: endpoint: mean tumor weight, dose: 50.0 mg/kg/injection, schedule: Q01DX001 (ip), vehicle: saline, higher = larger tumour
111 % of control: endpoint: mean tumor weight, dose: 8.4 mg/kg/injection, schedule: Q01DX001 (sc), vehicle: Klucel (hydroxypropylcellulose) (HPC), higher = larger tumour
56 % of control: endpoint: mean tumor weight, dose: 14.0 mg/kg/injection, schedule: Q01DX001 (sc), vehicle: Klucel (hydroxypropylcellulose) (HPC), higher = larger tumour
